{"source": "patent US8232314B2", "about": "“Compounds that protect against sensory hair cell death” (University of Washington, priority 2005, dated 2012)", "key": {"hair cells": {"tested_on": "hair cells", "experiment": "High-throughput screen of FDA approved compound library for protection against aminoglycoside-induced hair cell death", "type": "in vivo, zebrafish", "conditions": "library of 1040 FDA approved compounds, high-throughput assay", "procedure": "(§1) Zebrafish eggs of the AB/Wik wild-type strain were generated and maintained until 5 days post-fertilization temporally corresponding to the developmental maturation of the lateral line hair cells. 5 day postfertilization larvae were prelabeled with the fluorescent dyes FM 1-43, 3 μM (30 sec), and Yo-Pro-1, 2 μM (30 min) to identify the hair cells. Larvae were arrayed into 96 well plates containing embryo media. Synthetic small molecules from the Chembridge Corporation, San Diego, were transferred into the wells for a final concentration of 10 μM (0.05% DMSO). Following a one hour exposure to the compounds fish were treated with neomycin for an additional hour. Larvae were then analyzed in vivo with an epifluorescent Zeiss Axiovert 200M microscope with automated stage and a 40× objective to determine hair cell viability following neomycin exposure.\nA library of 1040 FDA approved compounds (NINDS Custom Collection II, Microsource, Inc.) were screened using a high-throughput assay."}, "[1]": {"tested_on": "lateral line hair cells of zebrafish", "experiment": "Protection against cisplatin-induced lateral line hair cell death", "type": "in vivo, zebrafish (Danio rerio)", "conditions": "for protective against toxic effects of cisplatin on hair cells (identified by screening): exemplified platinum coordination complex (cisplatin)", "procedure": "(§2) Larvae were placed in a transfer device fashioned from a 50 ml conical tube with one end cut off and a mesh cover at the bottom. FM 1-43 (n-(3-triethylammoniumpropyl)-4-(4-dibutylamino]-styryl)pyridinium dibromide; Molecular Probes, Eugene, Oreg.) labeling of lateral line neuromasts was achieved by immersing free swimming larvae in 3 μM FM 1-43 in embryo medium for 30 seconds followed by 3 rinses in embryo medium. Using this procedure FM 1-43 is restricted to hair cells in neuromasts (Seiler and Nicolson, J Neurobiol (1999) 41:424-34). Yo-Pro-1 (Molecular Probes, Eugene, Oreg.) labeling of hair cell nuclei in lateral line neuromasts was achieved using a similar technique, incubating larvae in 2 μM Yo-Pro-1 in embryo medium for 30 minutes followed by 3 rinses. Using this procedure only the nuclei of hair cells are labeled.\nCisplatin from a 200 mM stock solution in DMSO (Sigma) was diluted in embryo medium to final concentrations of 300 μM, 500 μM, and 1 mM (0.05% DMSO) in each well of a six-well culture plate. Following vital dye staining live free-swimming five dpf larvae were transferred from control (neomycin-free) embryo medium to cisplatin-containing medium and incubated for 3 h.\nTo determine if compound F5 is protective against the otoxic effects of cisplatin, larvae were pretreated with compound F5 10 μm for 1 hour, exposed the larvae to 0, 300 μM, 500 μM and 1 mM of cisplatin for 3 hours, counted hair cells and compared to untreated controls."}, "[2]": {"tested_on": "lateral line hair cells of zebrafish", "experiment": "Protection of zebrafish lateral line hair cells against neomycin-induced hair cell death", "type": "in vivo, zebrafish (Danio rerio)", "design": "protection of hair cells from neomycin induced hair cell death in the small molecule screen: dose or concentration left out as unconfirmed", "conditions": "for protective against toxic effects of neomycin on hair cells (identified by screening): exemplified aminoglycoside (neomycin); for protection of hair cells from neomycin induced hair cell death in the small molecule screen: 5 dpf larvae, pretreated with compound at 10 μm, exposed to neomycin, hair cells evaluated after 1 hour; for long lasting protection, hair cell counts (FM 1-43) after neomycin: 200 μm neomycin, 24 hours post treatment; for protective effect against neomycin (dose finding): pretreated at 0-200 μM compound, neomycin 200 μM, compared to controls", "procedure": "Zebrafish embryos were produced by paired matings of adult fish maintained at 28.5° C. in the University of Washington zebrafish facility. Beginning at 4 days post fertilization (dpf), larvae were fed live paramecia. Larvae were maintained at a density of 50 per 100 mm^2 petri dish in embryo medium (1 mM MgSO4, 120 μM KH2PO4, 74 μM Na2HPO4, 1 mM CaCl2, 500 μM KCl, […], and 500 μM NaHCO3 in dH2O) in a tissue incubator at 28.5° C. All animal procedures were approved by the University of Washington institutional Animal Care and Use Committee,\nas §2, §1\nNeomycin sulfate from a 50 mM stock solution in dH2O (Sigma) was diluted in embryo medium to final concentrations of 25 μM, 50 μM, 100 μM, 200 μM and 400 μM in each well of a six-well culture plate. Following vital dye staining live free-swimming five dpf larvae were transferred from control (neomycin-free) embryo medium to neomycin-containing medium and incubated for 1 h. For time-lapse imaging, neomycin-containing medium was added directly to the imaging chamber.\nIn order to identify compounds that protect hair cells of the lateral line from the toxic effects of the aminoglycoside neomycin, 10,960 small molecules were screened. 5 dpf larvae were double labeled with the fluorescent dyes FM 1-43 and Yo-Pro-1, pretreated with the compounds at a dose of 10 μm, exposed to […], and their hair cells evaluated after 1 hour, FIG. 1.\nTo identify the optimal dose for evaluating the compounds' protective effects, larvae were pretreated with both compounds at 0, 1, 10, 50, 100 and 200 μM, and exposed to neomycin at 200 μM and compared to controls.\nThe neomycin susceptibility of larvae pretreated with 10 μM of compound F5 and controls at 0, 25, 100, 200 and 400 μm neomycin were compared.\nTo evaluate the protection conferred by compounds F5 and H10, hair cell counts were compared using the fluorescent dye FM 1-43 to identify hair cells in larvae pretreated with compound and controls, exposed to 200 μm neomycin after 24 hours, 48 hours and 72 hours. […] At 48 hours and beyond the protective effects of compound F5 and H10 cannot be determined as the larvae have repopulated the neuromasts with regenerated hair cells, FIG. 5."}, "lateral line hair cells": {"tested_on": "lateral line hair cells", "experiment": "Mechanotransduction-dependent activity of lateral line hair cells measured by FM 1-43 uptake", "type": "in vivo, zebrafish", "conditions": "pretreated 1 hour at 10 μm, FM 1-43 3 μM for 30 seconds", "procedure": "To test whether compounds F5 and H10 inhibit mechanotransduction-dependent activity of lateral line hair cells, larvae were incubated in the dye FM1-43. Larvae were pretreated with each compound for 1 hour at 10 μm and exposed to FM 1-43, 3 μM, for 30 seconds. […] Neither compound F5 nor compound H10 inhibited the uptake of FM1-43, FIG. 7."}, "[3]": {"tested_on": "zebrafish lateral line hair cells", "experiment": "Neomycin-induced hair cell death of zebrafish lateral line hair cells", "type": "in vivo", "conditions": "5 dpf larvae, 1 hour exposure to 200 μM, FM 1-43 and Yo-Pro-1 labeling", "procedure": "FIGS. 1A and 1B illustrate labeling and neomycin-induced hair cell death of zebrafish lateral line hair cells. FIG. 1A depicts 5 days post fertilization (dpf) larvae hair cells labeled with FM 1-43 (red) to identify the cytoplasm of hair cells and Yo-Pro-1 (green) labeling the nucleus. […] Cytoplasmic (red) and nuclear fragments (green) are visible in FIG. 1B.\nas §2\nNeomycin sulfate from a 50 mM stock solution in dH2O (Sigma) was diluted in embryo medium to final concentrations of 25 μM, 50 μM, 100 μM, 200 μM and 400 μM in each well of a six-well culture plate. […]"}}, "note": "Entries after “also recorded” stand apart in the source; their conditions may differ."}
{"compound": "Nc1c2c(nc3ccccc13)CCCC2", "note": "[9-amino-1,2,3,4-tetrahydroacridine]", "values": [{"measurement": "protection against aminoglycoside-induced hair cell death (screen hit)", "setting": "hair cells", "value": "protect against aminoglycoside-induced hair cell death"}]}
{"compound": "COc1ccccc1OCCNCC(O)COc1cccc2[nH]c3ccccc3c12", "note": "(centres unmarked) [Carvedilol]", "values": [{"measurement": "protection against aminoglycoside-induced hair cell death (screen hit)", "setting": "hair cells", "value": "protect against aminoglycoside-induced hair cell death"}]}
{"compound": "Cc1cccc(C(=O)NC(NC(=S)Nc2sc3c(c2C(N)=O)CCCC3)C(Cl)(Cl)Cl)c1", "note": "(centres unmarked) [Compound A, 2-{{({2,2,2-trichloro-1-[(3-methylbenzoyl)amino]ethyl}amino)carbonothioyl]amino}-4,5,6,7-tetrahydro-1-benzothiophene-3-carboxamide]", "values": [{"measurement": "protective against toxic effects of cisplatin on hair cells (identified by screening)", "setting": "[1]", "value": "protective"}, {"measurement": "protective against toxic effects of neomycin on hair cells (identified by screening)", "setting": "[2]", "value": "protective"}]}
{"compound": "NC(=O)c1c(NC(=O)Nc2ccc(Cl)cc2)sc2c1CCCC2", "note": "[Compound B, 2-({[(4-chlorophenyl)amino]carbonyl}amino)-4,5,6,7-tetrahydro-1-benzothiophene-3-carboxamide]", "values": [{"measurement": "protective against toxic effects of cisplatin on hair cells (identified by screening)", "setting": "[1]", "value": "protective"}, {"measurement": "protective against toxic effects of neomycin on hair cells (identified by screening)", "setting": "[2]", "value": "protective"}]}
{"compound": "NC(=O)c1c(NC(=O)c2ccc(Cl)c([N+](=O)[O-])c2)sc2c1CCCC2", "note": "[Compound C, 2-[(4-chloro-3-nitrobenzoyl)amino]-4,5,6,7-tetrahydro-1-benzothiophene-3-carboxamide]", "values": [{"measurement": "protective against toxic effects of cisplatin on hair cells (identified by screening)", "setting": "[1]", "value": "protective"}, {"measurement": "protective against toxic effects of neomycin on hair cells (identified by screening)", "setting": "[2]", "value": "protective"}]}
{"compound": "NC(=O)c1c(NC(=O)CN2CCCCC2)sc2c1CCCC2", "note": "[Compound D, 2-[(1-piperidinylacetyl)amino]-4,5,6,7-tetrahydro-1-benzothiophene-3-carboxamide]", "values": [{"measurement": "protective against toxic effects of cisplatin on hair cells (identified by screening)", "setting": "[1]", "value": "protective"}, {"measurement": "protective against toxic effects of neomycin on hair cells (identified by screening)", "setting": "[2]", "value": "protective"}]}
{"compound": "CCN1CCc2c(sc(NC(=O)Nc3ccc(Cl)cc3)c2C(N)=O)C1", "note": "[Compound F5, 2-({[(4-chlorophenyl)amino]carbonyl}amino)-6-ethyl-4,5,6,7-tetrahydrothieno[2,3-c]pyridine-3-carboxamide]", "values": [{"measurement": "inhibition of FM 1-43 uptake (mechanotransduction-dependent activity)", "setting": "lateral line hair cells", "value": "do not inhibit mechanotransduction-dependent activity; also recorded: do not prevent the rapid uptake of FM1-43"}, {"measurement": "protective against toxic effects of cisplatin on hair cells (identified by screening)", "setting": "[1]", "value": "protective"}, {"measurement": "protection against cisplatin induced hair cell death (hair cell counts)", "setting": "[1]; pretreated 10 μm for 1 hour, 0, 300 μM, 500 μM and 1 mM cisplatin for 3 hours", "value": "significant protection against cisplatin induced hair cell death; also recorded: protective against cisplatin-induced lateral Sine hair cell death"}, {"measurement": "neomycin susceptibility of pretreated larvae versus controls", "setting": "[2]; 10 μM compound pretreatment, 0, 25, 100, 200 and 400 μm neomycin", "value": "less susceptible to neomycin than controls; also recorded: protects lateral line hair cells against neomycin"}, {"measurement": "protection of hair cells from neomycin induced hair cell death in the small molecule screen", "setting": "[2]", "value": "protect hair cells from neomycin induced hair cell death"}, {"measurement": "long lasting protection, hair cell counts (FM 1-43) after neomycin", "setting": "[2]", "value": "Significant protection; also recorded: protective through 24 hours post neomycin treatment"}, {"measurement": "protective against toxic effects of neomycin on hair cells (identified by screening)", "setting": "[2]", "value": "protective"}, {"measurement": "protective effect against neomycin (dose finding)", "setting": "[2]", "value": "protective against neomycin"}]}
{"compound": "COc1ccc(C(=O)NC(NC(=S)Nc2sc3c(c2C(N)=O)CCCC3)C(Cl)(Cl)Cl)cc1", "note": "(centres unmarked) [Compound H10, 2-{[({2,2,2-trichloro-1-[(4-methoxybenzoyl)amino]ethyl}amino)carbonothioyl]amino}-4,5,6,7-tetrahydro-1-benzothiophene-3-carboxamide]", "values": [{"measurement": "inhibition of FM 1-43 uptake (mechanotransduction-dependent activity)", "setting": "lateral line hair cells", "value": "do not inhibit mechanotransduction-dependent activity; also recorded: do not prevent the rapid uptake of FM1-43"}, {"measurement": "protective against toxic effects of cisplatin on hair cells (identified by screening)", "setting": "[1]", "value": "protective"}, {"measurement": "protection of hair cells from neomycin induced hair cell death in the small molecule screen", "setting": "[2]", "value": "protect hair cells from neomycin induced hair cell death"}, {"measurement": "long lasting protection, hair cell counts (FM 1-43) after neomycin", "setting": "[2]", "value": "Significant protection; also recorded: protective through 24 hours post neomycin treatment"}, {"measurement": "protective against toxic effects of neomycin on hair cells (identified by screening)", "setting": "[2]", "value": "protective"}, {"measurement": "optimal protective dose against 200 μM neomycin", "setting": "[2]; larvae pretreated at 0, 1, 10, 50, 100 and 200 μM compound, 200 μM neomycin", "value": 1, "unit": "µM"}, {"measurement": "protective effect against neomycin (dose finding)", "setting": "[2]", "value": "protective against neomycin"}]}
{"compound": "CCN(CC)CCOC(=O)C(c1ccccc1)C1CCCCC1", "note": "(centres unmarked) [Drofenine]", "values": [{"measurement": "protection against aminoglycoside-induced hair cell death (screen hit)", "setting": "hair cells", "value": "protect against aminoglycoside-induced hair cell death"}]}
{"compound": "NC(N)=NC(=O)c1nc(Cl)c(N2CCCCCC2)nc1N", "note": "[N,N-hexamethyleneamiloride]", "values": [{"measurement": "protection against aminoglycoside-induced hair cell death (screen hit)", "setting": "hair cells", "value": "protect against aminoglycoside-induced hair cell death"}]}
{"compound": "CC(COc1ccccc1)N(CCCl)Cc1ccccc1", "note": "(centres unmarked) [Phenoxybenzamine]", "values": [{"measurement": "protection against aminoglycoside-induced hair cell death (screen hit)", "setting": "hair cells", "value": "protect against aminoglycoside-induced hair cell death"}]}
{"compound": "neomycin", "values": [{"measurement": "hair cell death after neomycin exposure", "setting": "[3]", "value": "undergo apoptotic death"}]}
